Laboratory results reported in US10287255B2, “Compounds as histone deacetylase 6 inhibitors and pharmaceutical compositions comprising the same” (CHONG KUN DANG PHARMACEUTICAL CORP., priority 2014, dated 2019).

Assays:
human recombinant HDAC1 = target: T1, human recombinant HDAC1 (Homo sapiens, UniProt Q13547); assay: HDAC1 enzyme activity inhibition assay (in vitro, fluorimetric); assay type: biochemical; conditions: human recombinant HDAC1, fluorimetric kit, 30° C. 60 minutes
T1 construct: purchased Enzo Life Science BML-SE456
Experimental: (§1) In order to examine the HDAC6 selectivity of the compounds of formula 1 of the present invention by HDAC1 and HDAC6 enzymatic activity inhibition assays, an experiment was performed using a conventional substance as a control.
(§2) HDAC enzyme activity was measured using a HDAC Fluorimetric Drug Discovery Kit (BML-AK511, 516, Enzo Life Science). For the HDAC1 enzyme activity test, human recombinant HDAC1 (BML-SE456) was used as an enzyme source, and Fluor de Lys®-“SIRT1 (BNL-KI177) was used as a substrate. A 5-fold dilution of the compound was seeded into a 96-well plate, and then 0.3 μg of the enzyme and 10 μM of the substrate were added to each well of the plate and allowed to react at 30° C. for 60 minutes. Then, Fluor de Lys® Developer II (BML-KI176) was added thereto and allowed to react for 30 minutes, after which the fluorescence value (Ex 360, Em 460) was measured using a multi-plate reader (Flexstation 3, Molecular Device). The HDAC6 enzyme was tested using human recombinant HDAC6 (382180) (Calbiochem) according to the same protocol as the HDAC1 enzyme activity test method. Based on the resulting values, each IC50 value was calculated using GraphPad Prism4.0 program.

human recombinant HDAC6 = target: T2, human recombinant HDAC6 (Homo sapiens, UniProt Q9UBN7); assay: HDAC6 enzyme activity inhibition assay (in vitro, fluorimetric); assay type: biochemical; conditions: for HDAC6 selectivity (fold): HDAC6 selectivity over HDAC1; for IC50: human recombinant HDAC6, fluorimetric kit, same protocol as HDAC1
T2 construct: purchased Calbiochem 382180
T2 sequence (Q9UBN7 1-1215): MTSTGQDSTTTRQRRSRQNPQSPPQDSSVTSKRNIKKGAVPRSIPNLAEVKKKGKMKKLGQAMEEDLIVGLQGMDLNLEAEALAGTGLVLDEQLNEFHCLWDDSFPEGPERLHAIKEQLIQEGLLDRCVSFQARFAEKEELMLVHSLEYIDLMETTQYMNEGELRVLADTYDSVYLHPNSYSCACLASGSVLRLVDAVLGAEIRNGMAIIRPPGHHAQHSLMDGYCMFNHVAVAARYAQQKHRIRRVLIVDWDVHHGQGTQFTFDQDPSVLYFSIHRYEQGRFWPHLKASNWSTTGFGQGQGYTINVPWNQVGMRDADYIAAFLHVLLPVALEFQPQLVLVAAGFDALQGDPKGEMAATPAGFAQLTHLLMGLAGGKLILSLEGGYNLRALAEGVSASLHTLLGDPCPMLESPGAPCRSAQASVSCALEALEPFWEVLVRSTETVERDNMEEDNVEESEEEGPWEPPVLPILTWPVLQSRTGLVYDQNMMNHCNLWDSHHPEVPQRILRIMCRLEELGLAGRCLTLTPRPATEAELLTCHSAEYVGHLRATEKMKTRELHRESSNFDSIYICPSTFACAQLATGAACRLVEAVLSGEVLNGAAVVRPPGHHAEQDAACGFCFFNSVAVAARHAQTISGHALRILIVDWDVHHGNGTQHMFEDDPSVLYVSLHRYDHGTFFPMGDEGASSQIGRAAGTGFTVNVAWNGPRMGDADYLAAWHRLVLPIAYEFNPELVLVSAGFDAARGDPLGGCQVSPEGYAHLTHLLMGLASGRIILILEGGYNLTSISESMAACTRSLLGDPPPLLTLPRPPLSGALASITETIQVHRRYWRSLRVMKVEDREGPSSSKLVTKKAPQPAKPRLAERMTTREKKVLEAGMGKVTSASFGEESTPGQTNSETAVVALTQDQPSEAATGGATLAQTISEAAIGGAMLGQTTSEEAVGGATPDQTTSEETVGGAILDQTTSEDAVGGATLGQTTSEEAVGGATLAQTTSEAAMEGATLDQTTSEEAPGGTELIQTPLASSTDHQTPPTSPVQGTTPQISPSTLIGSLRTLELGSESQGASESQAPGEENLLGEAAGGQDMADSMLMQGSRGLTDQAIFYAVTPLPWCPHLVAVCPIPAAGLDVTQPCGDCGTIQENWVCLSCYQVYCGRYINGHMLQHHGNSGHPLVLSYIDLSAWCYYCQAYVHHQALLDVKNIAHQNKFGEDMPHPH
Experimental: as §1, §2

T1 sequence (Q13547 whole entry): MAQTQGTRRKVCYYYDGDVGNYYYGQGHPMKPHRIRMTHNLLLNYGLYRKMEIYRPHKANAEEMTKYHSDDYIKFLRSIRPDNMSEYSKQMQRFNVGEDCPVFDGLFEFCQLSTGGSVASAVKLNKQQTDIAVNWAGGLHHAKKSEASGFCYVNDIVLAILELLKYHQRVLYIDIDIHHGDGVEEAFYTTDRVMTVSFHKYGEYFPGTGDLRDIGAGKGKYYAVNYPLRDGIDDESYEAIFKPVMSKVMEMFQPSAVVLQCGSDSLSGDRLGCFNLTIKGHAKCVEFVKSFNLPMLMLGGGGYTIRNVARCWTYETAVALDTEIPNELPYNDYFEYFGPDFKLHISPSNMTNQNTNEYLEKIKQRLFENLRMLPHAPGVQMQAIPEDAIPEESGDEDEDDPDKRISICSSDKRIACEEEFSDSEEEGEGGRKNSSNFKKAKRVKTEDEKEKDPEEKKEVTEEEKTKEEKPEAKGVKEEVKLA

IC50 (human recombinant HDAC1)	HDAC6 selectivity (fold) (human recombinant HDAC6)	IC50 (human recombinant HDAC6)	SMILES
5300 nM	12 fold	433 nM	C[C@@H]1CN(Cc2cccc(CN3CCCC3)c2)C[C@H](C)N1Cc1ccc(C(=O)NO)cc1 [Compound 479, 4-(((2S,6R)-2,6-dimethyl-4-(3-(pyrrolidin-1-ylmethyl)benzyl)piperazin-1-yl)methyl)-N-hydroxybenzamide]
17700 nM	46 fold	388 nM	C[C@@H]1CN(C(=O)c2ccccc2C2=CCC(C)(C)CC2)C[C@H](C)N1Cc1ccc(C(=O)NO)cc1 [Compound 280, 4-(((2S,6R)-4-(4′,4′-dimethyl-2′,3′,4′,5′-tetrahydro-[1,1′-biphenyl]-2-carbonyl)-2,6-dimethylpiperazin-1-yl)methyl)-N-hydroxybenzamide]
2900 nM	182 fold	16 nM	C[C@@H]1CN(Cc2ccc(C(=O)NO)cc2)C[C@H](C)N1C(=O)NCc1ccccc1 [Compound 161, (2S,6R)-N-benzyl-4-(4-(hydroxycarbamoyl)benzyl)-2,6-dimethylpiperazine-1-carboxamide]
1100 nM	5 fold	239 nM	C[C@@H]1CN(C(=O)Nc2ccc3c(c2)CCO3)C[C@H](C)N1Cc1ccc(C(=O)NO)cc1 [Compound 187, (3R,5S)-N-(2,3-dihydrobenzofuran-5-yl)-4-(4-(hydroxycarbamoyl)benzyl)-3,5-dimethylpiperazine-1-carboxamide]
> 10000 nM	>13 fold	769 nM	C[C@@H]1CN(C(=O)c2ccccc2-c2cccnc2)C[C@H](C)N1Cc1ccc(C(=O)NO)cc1 [Compound 279, 4-(((2S,6R)-2,6-dimethyl-4-(2-(pyridin-3-yl)benzoyl)piperazin-1-yl)methyl)-N-hydroxybenzamide]
> 10000 nM	>59 fold	170 nM	CC(c1ccc(C(=O)NO)cc1)N1C[C@@H](C)N(Cc2ccccc2)[C@@H](C)C1 (stereo partly drawn) [Compound 219, 4-(1-((3R,5S)-4-benzyl-3,5-dimethylpiperazin-1-yl)ethyl)-N-hydroxybenzamide]
15600 nM	130 fold	120 nM	C[C@@H]1CN(Cc2ccc(C(=O)NO)cc2)C[C@@H](C)N1C(=O)c1ccco1 [Compound 249, 4-(((3R,5R)-4-(furan-2-carbonyl)-3,5-dimethylpiperazin-1-yl)methyl)-N-hydroxybenzamide]
> 10000 nM	>118 fold	85 nM	C[C@@H]1CN(Cc2ccc(C(=O)NO)cc2)C[C@H](C)N1Cc1cccc(CN2CCN(CC(C)(C)F)CC2)c1 [Compound 387, 4-(((3R,5S)-4-(3-((4-(2-fluoro-2-methylpropyl)piperazin-1-yl)methyl)benzyl)-3,5-dimethylpiperazin-1-yl)methyl)-N-hydroxybenzamide]
2500 nM	6 fold	400 nM	C[C@@H]1CN(C(=O)c2cccc(C3=CCOCC3)c2)C[C@H](C)N1Cc1ccc(C(=O)NO)cc1 [Compound 259, 4-(((2S,6R)-4-(3-(3,6-dihydro-2H-pyran-4-yl)benzoyl)-2,6-dimethylpiperazin-1-yl)methyl)-N-hydroxybenzamide]
2800 nM	2 fold	1270 nM	C[C@@H]1CN(Cc2ccc3ccccc3c2)C[C@H](C)N1Cc1ccc(C(=O)NO)cc1 [Compound 268, 4-(((2S,6R)-2,6-dimethyl-4-(naphthalen-2-ylmethyl)piperazin-1-yl)methyl)-N-hydroxybenzamide]
> 10000 nM	>29 fold	349 nM	C[C@@H]1CN(Cc2ccc(C(=O)NO)cc2)C[C@H](C)N1Cc1cc(F)c(F)cc1F [Compound 213, 4-(((3R,5S)-3,5-dimethyl-4-(2,4,5-trifluorobenzyl)piperazin-1-yl)methyl)-N-hydroxybenzamide]
12300 nM	558 fold	22 nM	C[C@@H]1CN(Cc2ccc(C(=O)NO)cc2)C[C@H](C)N1Cc1cccc(CN2CCOCC2)c1 [Compound 356, 4-(((3R,5S)-3,5-dimethyl-4-(3-(morpholinomethyl)benzyl)piperazin-1-yl)methyl)-N-hydroxybenzamide]

Continued, compound first:

SMILES	IC50 (human recombinant HDAC1)	HDAC6 selectivity (fold) (human recombinant HDAC6)	IC50 (human recombinant HDAC6)
CC(C)N1CCN(Cc2cccc(C(=O)N3[C@H](C)CN(Cc4ccc(C(=O)NO)cc4)C[C@@H]3C)c2)CC1 [Compound 434, N-hydroxy-4-(((3R,5S)-4-(3-((4-isopropylpiperazin-1-yl)methyl)benzoyl)-3,5-dimethylpiperazin-1-yl)methyl)benzamide]	3700 nM	61 fold	60 nM
C[C@@H]1CN(C(=O)Nc2ccc3c(ccn3C)c2)C[C@H](C)N1Cc1ccc(C(=O)NO)cc1 [Compound 185, (3R,5S)-4-(4-(hydroxycarbamoyl)benzyl)-3,5-dimethyl-N-(1-methyl-1 H -indol-5-yl)piperazine-1-carboxamide]	800 nM	3 fold	249 nM
C[C@@H]1CN(Cc2ccc(C(=O)NO)cc2)C[C@H](C)N1Cc1cccc(CN2CCN(CC(F)(F)F)CC2)c1 [Compound 453, 4-(((3R,5S)-3,5-dimethyl-4-(3-((4-(2,2,2-trifluoroethyl)piperazin-1-yl)methyl)benzyl)piperazin-1-yl)methyl)-N-hydroxybenzamide]	11900 nM	154 fold	77 nM
C[C@@H]1CN(C(=O)c2cccc(-c3ccnc(F)c3)c2)C[C@H](C)N1Cc1ccc(C(=O)NO)cc1 [Compound 262, 4-(((2S,6R)-4-(3-(2-fluoropyridin-4-yl)benzoyl)-2,6-dimethylpiperazin-1-yl)methyl)-N-hydroxybenzamide]	2400 nM	3 fold	727 nM
C[C@@H]1CN(Cc2ccccc2-c2cccnc2)C[C@H](C)N1Cc1ccc(C(=O)NO)cc1 [Compound 349, 4-(((2S,6R)-2,6-dimethyl-4-(2-(pyridin-3-yl)benzyl)piperazin-1-yl)methyl)-N-hydroxybenzamide]	5000 nM	1000 fold	5 nM
C[C@@H]1CN(c2ccc(F)cc2)C[C@H](C)N1Cc1ccc(C(=O)NO)cc1 [Compound 119, 4-(((2S,6R)-4-(4-fluorophenyl)-2,6-dimethylpiperazin-1-yl)methyl)-N-hydroxybenzamide]	8200 nM	26 fold	309 nM
CCC(=O)N1[C@H](C)CN(Cc2ccc(C(=O)NO)cc2)C[C@@H]1C [Compound 293, 4-(((3R,5S)-3,5-dimethyl-4-propionylpiperazin-1-yl)methyl)-N-hydroxybenzamide]	5800 nM	44 fold	131 nM
C[C@@H]1CN(C(=O)c2ccc(Cl)cc2)C[C@H](C)N1Cc1ccc(C(=O)NO)cc1 [Compound 106, 4-(((2S,6R)-4-(4-chlorobenzoyl)-2,6-dimethylpiperazin-1-yl)methyl)-N-hydroxybenzamide]	7300 nM	61 fold	119 nM
